In brackets after ≈: the same amount, converted by molar mass. One block for each compound: values may come before it.
Experiments:
Assay in all cases: ≥ marks a high value that may be exact or a test limit, other limits are often not marked, values filed in µg/mL are converted to µM
Bacillus subtilis PS832 = test system: Bacillus subtilis PS832
[1] = test system: Staphylococcus epidermidis ATCC 12228
[2] = test system: Klebsiella aerogenes ATCC 13048
Escherichia coli DL7 = test system: Escherichia coli DL7
[3] = test system: Staphylococcus aureus AS1.72
[4] = test system: Pseudomonas aeruginosa CGMCC 1.860
[5] = test system: Enterobacter cloacae CGMCC 1.58
Bacillus cereus AS1.126 = test system: Bacillus cereus AS1.126
[6] = test system: Enterococcus faecalis CGMCC 1.595
[7] = test system: Klebsiella pneumoniae subsp. pneumoniae CGMCC 1.176
[8] = test system: Enterococcus faecium CGMCC 1.2334
Escherichia coli AS1.349 = test system: Escherichia coli AS1.349
[9] = test system: Proteus mirabilis CICC 22931
[10] = test system: Acinetobacter baumannii CICC 22934
[11] = test system: Klebsiella aerogenes CGMCC 1.876
[12] = test system: Lactococcus lactis AS1.1690
[13] = test system: Erwinia amylovora PMV 6076
[14] = test system: Pseudomonas syringae pv. syringae EPS 94
[15] = test system: Xanthomonas campestris pv. Vesicatoria 2133-2
[16] = test system: Staphylococcus aureus KCTC 3881
[17] = test system: Staphylococcus aureus CCARM 3089
[18] = test system: Salmonella typhimurium CCARM 8007
[19] = test system: Staphylococcus aureus CCARM 3090
[20] = test system: Acinetobacter baumannii CCARM 12005
[21] = test system: Staphylococcus aureus CCARM 3114
[22] = test system: Escherichia coli CCARM 1229
[23] = test system: Pseudomonas aeruginosa KCTC 2513
[24] = test system: Escherichia coli CCARM 1238
[25] = test system: Staphylococcus aureus KCTC 1916
[26] = test system: Salmonella typhimurium CCARM 8003
[27] = test system: Salmonella typhimurium KCTC 1926
[28] = test system: Pseudomonas aeruginosa CCARM 2095
[29] = test system: Escherichia coli KCTC 1682
[30] = test system: Bacillus subtilis KCTC 1022
[31] = test system: Pseudomonas aeruginosa CCARM 2003
[32] = test system: Salmonella typhimurium CCARM 8009
[33] = test system: Escherichia coli KCTC 2593
[34] = test system: Pseudomonas aeruginosa CCARM 2002
[35] = test system: Pseudomonas aeruginosa CCARM 2163
[36] = test system: Staphylococcus epidermidis KCTC 1917
[37] = test system: Acinetobacter baumannii CCARM 12036
[38] = test system: Bacillus subtilis KCTC 1021
[39] = test system: Staphylococcus aureus CCARM 3126
[40] = test system: Pseudomonas aeruginosa KCTC 1637
[41] = test system: Bacillus subtilis KCTC 3068
[42] = test system: Escherichia coli KCTC 2571
[43] = test system: Acinetobacter baumannii CCARM 12035
[44] = test system: Staphylococcus aureus CCARM 3108
[45] = test system: Acinetobacter baumannii CCARM 12037
[46] = test system: Staphylococcus aureus KCTC 1621
[47] = test system: Pseudomonas aeruginosa KCTC 2004

MIC (Bacillus subtilis PS832): 0.5 µM (≈ 0.751 µg/mL)
MIC [1]: 2 µM (≈ 3.01 µg/mL)
MIC [2]: ≥ 32 µM
MIC (Escherichia coli DL7): 2 µM (≈ 3.01 µg/mL)
Structure (SMILES): CC[C@H](C)[C@H](NC(=O)[C@H](CCCN=C(N)N)NC(=O)[C@H](CCCCN)NC(=O)[C@H](CC(C)C)NC(=O)[C@H](CC(C)C)NC(=O)CNC(=O)[C@H](Cc1cnc[nH]1)NC(=O)[C@@H](NC(=O)[C@@H](N)C(C)C)[C@@H](C)CC)C(=O)N[C@@H](CCCCN)C(=O)N[C@H](C(=O)N[C@@H](CC(C)C)C(=O)N[C@@H](CC(C)C)C(N)=O)[C@@H](C)O [VIHGLLKRIKTLL]

MIC [3]: 3.13 µM (≈ 7.1 µg/mL)
MIC [4]: ≥ 100 µM
MIC [5]: ≥ 100 µM
MIC (Bacillus cereus AS1.126): 2.34 µM (≈ 5.31 µg/mL)
MIC [6]: 4.69 µM (≈ 10.6 µg/mL)
MIC [7]: ≥ 100 µM
MIC [8]: 4.69 µM (≈ 10.6 µg/mL)
MIC (Escherichia coli AS1.349): ≥ 100 µM
MIC [9]: ≥ 100 µM
MIC [10]: ≥ 100 µM
MIC [11]: ≥ 100 µM
MIC [12]: 4.69 µM (≈ 10.6 µg/mL)
Structure (SMILES): CC(C)C[C@H](NC(=O)[C@H](Cc1cnc[nH]1)NC(=O)[C@H](CCCN=C(N)N)NC(=O)CNC(=O)[C@@H](NC(=O)[C@H](C)NC(=O)[C@@H](N)CO)C(C)C)C(=O)N[C@@H](CCCN=C(N)N)C(=O)N[C@@H](CCCN=C(N)N)C(=O)N[C@@H](Cc1ccccc1)C(=O)N[C@@H](CC(C)C)C(=O)N[C@@H](CC(C)C)C(=O)N[C@@H](CCCN=C(N)N)C(=O)N[C@@H](CCCCN)C(=O)N[C@@H](Cc1cnc[nH]1)C(=O)N[C@@H](CCCN=C(N)N)C(=O)N[C@@H](CCCCN)C(=O)N[C@@H](Cc1cnc[nH]1)C(=O)O [SAVGRHLRRFLLRKHRKH]

MIC [13]: 3.54 µM (≈ 7.9 µg/mL)
MIC [14]: 3.54 µM (≈ 7.9 µg/mL)
MIC [15]: 3.54 µM (≈ 7.9 µg/mL)
Structure (SMILES): CC[C@H](C)[C@H](NC(=O)[C@H](CCCCN)NC(=O)[C@H](CCCCN)NC(=O)[C@H](Cc1ccccc1)NC(=O)[C@H](CC(C)C)NC(=O)[C@H](CCCCN)NC(=O)[C@@H](N)CCCCN)C(=O)N[C@@H](CC(C)C)C(=O)N[C@@H](CCCCN)C(=O)N[C@@H](Cc1ccc(O)cc1)C(=O)N[C@@H](CC(C)C)C(=O)N[C@@H](CCCCN)C(=O)N[C@@H](Cc1ccccc1)C(=O)N[C@@H](CC(C)C)C(=O)N[C@@H](Cc1cnc[nH]1)C(=O)N[C@@H](CO)C(=O)N[C@@H](C)C(=O)N[C@@H](CCCCN)C(=O)O [KKLFKKILKYLKFLHSAK]

MIC [16]: 4 µM (≈ 10.3 µg/mL)
MIC [17]: 8 µM (≈ 20.7 µg/mL)
MIC [18]: 8 µM (≈ 20.7 µg/mL)
MIC [19]: 8 µM (≈ 20.7 µg/mL)
MIC [20]: 4 µM (≈ 10.3 µg/mL)
MIC [21]: 8 µM (≈ 20.7 µg/mL)
MIC [22]: 8 µM (≈ 20.7 µg/mL)
MIC [23]: 8 µM (≈ 20.7 µg/mL)
MIC [24]: 8 µM (≈ 20.7 µg/mL)
MIC [25]: 4 µM (≈ 10.3 µg/mL)
MIC [26]: 16 µM (≈ 41.3 µg/mL)
MIC [27]: 8 µM (≈ 20.7 µg/mL)
MIC [28]: 2 µM (≈ 5.16 µg/mL)
MIC [29]: 2 µM (≈ 5.16 µg/mL)
MIC [30]: 4 µM (≈ 10.3 µg/mL)
MIC [31]: 4 µM (≈ 10.3 µg/mL)
MIC [32]: 8 µM (≈ 20.7 µg/mL)
MIC [33]: 4 µM (≈ 10.3 µg/mL)
MIC [34]: 4 µM (≈ 10.3 µg/mL)
MIC [35]: 2 µM (≈ 5.16 µg/mL)
MIC [36]: 4 µM (≈ 10.3 µg/mL)
MIC [37]: 4 µM (≈ 10.3 µg/mL)
MIC [38]: 8 µM (≈ 20.7 µg/mL)
MIC [39]: 8 µM (≈ 20.7 µg/mL)
MIC [40]: 4 µM (≈ 10.3 µg/mL)
MIC [41]: 4 µM (≈ 10.3 µg/mL)
MIC [42]: 4 µM (≈ 10.3 µg/mL)
MIC [43]: 4 µM (≈ 10.3 µg/mL)
MIC [44]: 8 µM (≈ 20.7 µg/mL)
MIC [45]: 4 µM (≈ 10.3 µg/mL)
MIC [46]: 4 µM (≈ 10.3 µg/mL)
MIC [47]: 8 µM (≈ 20.7 µg/mL)
Structure (SMILES): CC[C@H](C)[C@H](NC(=O)CNC(=O)[C@H](CCCN=C(N)N)NC(=O)[C@H](CCCCN)NC(=O)[C@@H](NC(=O)[C@H](Cc1cnc[nH]1)NC(=O)[C@H](Cc1cnc[nH]1)NC(=O)[C@H](Cc1ccccc1)NC(=O)[C@@H](N)Cc1ccccc1)[C@@H](C)CC)C(=O)N[C@@H](CCCCN)C(=O)N[C@@H](Cc1cnc[nH]1)C(=O)N[C@H](C(=O)NCC(=O)N[C@@H](CCCCN)C(=O)N[C@H](C(=O)N[C@H](C(=O)N[C@@H](Cc1cnc[nH]1)C(=O)N[C@@H](CCCN=C(N)N)C(=O)N[C@@H](CC(C)C)C(=O)N[C@H](C(=O)N[C@H](C(=O)NCC(=O)O)[C@@H](C)O)C(C)C)[C@@H](C)CC)[C@@H](C)O)C(C)C [FFHHIKRGIKHVGKTIHRLVTG]

From DBAASP
